Among the data in ChEMBL document CHEMBL5441456, “ASAP - SARS-CoV-2 nsp3 macrodomain dose response” (2024) are IC50 values, retold here.

“And” between values parts separate entries of the source, which are not always exact repeats. Equal entries are not always repeated.

This test concerns the target Replicase polyprotein 1ab (Severe acute respiratory syndrome coronavirus 2, UniProt P0DTD1). As to the kind of experiment: Functional biochemical assay to identify treatments for viral infectious disease that targets SARS-COV-2 nsp3 macrodomain, whereby the mechanism of action displaces an ADP-Ribose modified peptide from the binding site. Utilizing a time-resolved fluorescence method to measure binding by reading the emitted fluorescence intensity in two wavelengths.
By IC50 is commonly meant the concentration that gives 50% inhibition. Low values mean greater potency, high ones weaker potency. Regarding `O=C(Nc1ncnc2c(C(=O)NC3(c4ccccc4F)CCCCC3)csc12)NC1CC1`, the concentration for half-maximal inhibition (IC50) is more than 99.5 µM. Take `Cc1ccc2c(c1)C[C@@H](C(=O)N(C)CC[C@@H](Nc1ncnc3[nH]ccc13)C(C)C)S2`: the IC50 is more than 99.5 µM.

Turning to `COc1cccc(CSC[C@@H](NC(=O)c2ncnc3[nH]ccc23)C(=O)O)c1`, the IC50 was more than 99.5 µM. Under `CC(=O)c1ccc(S(=O)(=O)Nc2cnc3[nH]ccc3c2)cc1` stands more than 99.5 µM. With `CS(=O)(=O)NC1CCC(Nc2ccc([C@@H](CC(=O)O)NC(=O)c3ncnc4[nH]ccc34)cc2)CC1` (stereo partly specified), the IC50 was 73.7 µM and 86 µM. Turning to `O=C(O)c1cn(CCNC(=O)c2ncnc3[nH]ccc23)cn1`, the concentration for half-maximal inhibition (IC50) is more than 99.5 µM. `CS(=O)(=O)NC1CCC(Nc2ccc([C@@H](CC(=O)O)NC(=O)c3c[nH]c4ncncc34)cc2)CC1` (stereo partly specified) displayed an IC50 of more than 99.5 µM. Under `Cn1cc([C@@H](Nc2ncnc3[nH]ccc23)c2ccc(F)cc2)cn1` stands more than 99.5 µM; under `C[C@@H](Cc1ccc(Cl)s1)Nc1ccc([C@@H](CC(=O)O)NC(=O)c2ncnc3[nH]ccc23)cc1`, 46.5 µM and 46.7 µM; under `O=S(=O)(Cc1ccc(F)cc1)Nc1cnc2[nH]ccc2c1`, more than 99.5 µM.

For the molecule `O=C(N[C@@H](CCO)c1ccccc1F)c1ncnc2[nH]ccc12`, the IC50 was more than 99.5 µM. The molecule `COc1ccc(S(=O)(=O)Nc2cnc3[nH]ccc3c2)cc1C(N)=O` yielded an IC50 of more than 99.5 µM. Regarding `CC(C)[C@@H](Cc1ccc(F)cc1)NC(=O)c1ncnc2[nH]ccc12`, the IC50 is more than 99.5 µM.

Regarding `N#CCc1cccc(S(=O)(=O)Nc2cnc3[nH]ccc3c2)c1`, the IC50 was more than 99.5 µM. For the molecule `O=S(=O)(Cc1ccccc1F)Nc1cnc2[nH]ccc2c1`, the IC50 is more than 99.5 µM. Molecule `O=C(NCc1ccccc1F)c1ncnc2[nH]ccc12` yielded an IC50 of more than 99.5 µM. `NC(=O)C[C@@H](NC(=O)c1ncnc2[nH]ccc12)C1CCCCC1` gave an IC50 of more than 99.5 µM. For the molecule `CCc1cnn(C)c1NC(=O)c1ncnc2[nH]ccc12`, the IC50 is more than 99.5 µM. For `CC(C)[C@@H](CCN(C)C(=O)c1cccc2cc(F)ccc12)Nc1ncnc2[nH]ccc12` the value was more than 99.5 µM; for `Cc1csc(NC(=O)CSC[C@@H](NC(=O)c2ncnc3[nH]ccc23)C(=O)O)n1`, more than 99.5 µM; for `Cc1cc(C)cc(CS(=O)(=O)Nc2cnc3[nH]ccc3c2)c1`, more than 99.5 µM. For `C[C@H]1C[C@H]1c1nnc(Nc2ccc([C@@H](CC(=O)O)NC(=O)c3ncnc4[nH]ccc34)cc2)o1` the value was 7.86 µM and 6.04 µM; for `O=C(Nc1ncnc2c(C(=O)Nc3ccccc3C(=O)N3CCCC3)csc12)NC1CC1`, more than 99.5 µM. For `O=C(N[C@@H]1CCC[C@@H]1C(=O)O)c1cnn2ccc(C3CCN(C(=O)c4ccc(Cl)cc4)CC3)cc12` the value was 32.5 µM and 24.5 µM; for `NC(=O)c1ccc(S(=O)(=O)Nc2cnc3[nH]ccc3c2)cc1`, more than 99.5 µM. Regarding `CC(C)[C@@H](CCN(C)C(=O)c1cc2nccnc2cc1F)Nc1ncnc2[nH]ccc12`, the IC50 is more than 99.5 µM. For `O=C(O)c1cn(CCCNC(=O)c2ncnc3[nH]ccc23)nn1` the value was more than 99.5 µM; for `COc1ccc2c(c1)CCN(c1ncnc3[nH]ccc13)[C@H]2C(C)C`, 14.2 µM and 12 µM; for `Cc1[nH]c2ncnc(NC(=O)C3CC(C(F)(F)F)C3)c2c1C` (stereo unspecified), more than 99.5 µM. For `O=C(NCc1ccc(F)cn1)c1ncnc2[nH]ccc12` the value was more than 99.5 µM. In turn, `CC(C)(C)n1cc([C@H]2N(c3ncnc4[nH]ccc34)CC23CCOCC3)cn1` registered a half-inhibitory concentration (IC50) of more than 99.5 µM.

In the case of `CCc1coc(Nc2ccc([C@@H](CC(=O)O)NC(=O)c3c[nH]c4ncncc34)cc2)n1`, the IC50 is 70.9 µM and 76.1 µM. `CN(C)C(=O)c1cccc(S(=O)(=O)Nc2cnc3[nH]ccc3c2)c1` showed an IC50 of more than 99.5 µM.

Regarding `CC(C)[C@@H](CN1CCCCC1)Nc1ncnc2[nH]ccc12`, the IC50 is more than 99.5 µM.

With `C[C@@H](c1ccc(F)c(F)c1)N(C)C(=O)c1ncnc2[nH]ccc12`, the half-inhibitory concentration (IC50) is more than 99.5 µM.

Consider `C[C@H]1C[C@H]1c1nnc(Nc2ccc([C@@H](CC(=O)O)NC(=O)c3c[nH]c4ncncc34)cc2)o1`, for which the IC50 was 85.2 µM and 97 µM.
